# Experimental data reported in patent US20160291027A1, “METHODS FOR […] ABILITY OF A Z[…] COMPOUND TO TREAT CANCER” (Eisai R&D Management Co., Ltd., priority 2007, published 2016).
# Legend:
# [1] = test system: panel of 31 melanoma cell lines; experiment: MTS cell viability assay in a panel of 31 melanoma cell lines; type: cell-based; settings: for % of Less Sensitive cell lines / Less sensitive cell lines (number/total) / Sensitive cell lines (number/total): Cut-Off IC50 < 100 nmol/L; for Number of sensitive cell lines: sensitivity defined as IC50<500 nmol/L
# Method: Cell viability was also assessed in a panel of 31 melanoma cell lines carrying different mutations in BRAF following treatment with a zearalenone analog compound, Compound 106. All assays were performed in a 96 well format. Cell viability was assessed after four days following treatment. Cell viability was assessed with a MTS Assay (CellTiter96®AqueousOne Solution Cell Proliferation Assay, Promega) in a panel of cell lines carrying various BRAF mutations to determine the effect of BRAF genotype on drug sensitivity. The mutational status of these cell lines and IC50 in nmol/L is depicted in FIG. 3C.
# Cell viability was assessed in a panel of melanoma cell lines carrying different mutations in BRAF, and PTEN following treatment with the MEK inhibitor, Compound 106. The panel of 31 melanoma cell lines was tested with eight concentrations of Compound 106 ranging from 10 μmol/L to 0.0003 μmol/L of Compound 106. (The panel of cell lines also carries mutations in one or more additional genes associated with cancer).
# All assays were performed in a 96 well format. Cell viability was assessed after four days following treatment. Cell viability was assessed with a MTS Assay (CellTiter96®AqueousOne Solution Cell Proliferation Assay, Promega) to determine the effect of genotype on drug sensitivity.
# [2] = test system: COLO-829 melanoma xenografts; experiment: Plasma human IL-8 (ELISA) in tumor bearing mice; type: in vivo; settings: COLO-829 xenograft; 40 mg/kg i.v. QD×4; 24 hours after the fourth dosing
# Description: (§1) In order to determine whether plasma IL-8 levels could be measurable in tumor xenograft bearing mice and whether plasma IL-8 levels change after treatment with Compound 106, COLO-829 and UACC-62 melanoma xenografts were established as Compound 106 sensitive xenografts in female nude mice. SF-295 human glioblastoma (BRAF wild-type) xenografts were established as an Compound 106 resistant tumor model in female nude mice. Female athymic NU/NU mice were inoculated subcutaneously with COLO-829, UACC-62 human melanoma cancer cells, or SF-295 human glioblastoma cells. Those animals that developed tumors of approximately 250 mm^3 were selected and randomized to two groups. The experiment consisted of a vehicle-treated and 40 mg/kg Compound 106-treated groups of 8 mice per group on the first day of treatment. Compound 106 was administered intravenously (i.v.) on a QD×4 (every day for a total of four injections) dosing schedule. The subcutaneous tumor volumes were measured on the first day of treatment and 24 hours after the fourth treatment. Heparinized blood was collected from these mice 24 hours after the fourth treatment with Compound 106 using a cardiac puncture, and plasma was isolated. The levels of human IL-8 in the plasma were determined by ELISA.
# [3] = test system: SF-295 human glioblastoma xenografts; experiment: Plasma human IL-8 (ELISA) in tumor bearing mice; type: in vivo; settings: SF-295 tumor bearing mice; 40 mg/kg i.v. QD×4; 24 hours after the fourth dosing
# Description: as §1
# [4] = test system: UACC-62 melanoma xenografts; experiment: Plasma human IL-8 (ELISA) in tumor bearing mice; type: in vivo; settings: UACC-62 xenograft; 40 mg/kg i.v. QD×4; 24 hours after the fourth dosing
# Description: as §1
# [5] = test system: LOX human melanoma xenografts; experiment: Subcutaneous LOX melanoma xenograft model; type: in vivo, mice
# Method: The purpose of this study was to investigate anticancer activity of Compound 106 in a LOX human melanoma xenograft model. LOX human melanoma cells, which carry a BRAF (V600E) mutation, were obtained from the DCTD Tumor Repository (Frederick, Md.). Cells were grown in monolayer cultures in T225 flask with RPMI-1640 growth media at 37° C. in a 5% CO2 humidified incubator. Cells were further cultivated in T225 flasks for the in vivo study. On the day of subcutaneous (s.c.) injections of the cells, growth medium was removed, flasks were washed with PBS, and cells were collected with trypsinization. Cells were washed and centrifuged for 3 minutes, and then resuspended in ice-cold PBS.
# Female athymic NU/NU mice were inoculated s.c. with 1×10^6 LOX human melanoma cells. Those animals that developed tumors of approximately 150 mm^3 were selected and randomized to five groups. The study consisted of a vehicle-treated group and four drug-treated groups of 8 mice per group for a total of 40 mice on the first day of treatment. All treatments were initiated on day 6. Compound 106 was administered intravenously (i.v.) on a Q4D×3 (days 6, 10, and 14) dosing schedule at dosages of 5, 10, 20 and 40 mg/kg with a volume of injection of 0.1 mL per 10 g body weight. The control group was treated with vehicle (20% Captisol in water) alone.
# The s.c. tumor volumes were measured and animals were weighed twice weekly starting with the first day of treatment. Tumor volume and relative body weight (RBW) were determined as described in Example 12.
# The study was terminated fifty-nine days after cancer cell transplantation. For each Compound 106 treatment group, measurements were also terminated when mean tumor volume reached two doublings (4-fold tumor volume) from the first day of treatment.
# Animals were treated intravenously on days 6, 10, and 14 (Q4D×3; indicated by arrows in FIG. 11). Tumor measurements on tumor bearing mice in all surviving groups were stopped on day 37. Then, tumor measurements were continued for tumor-free mice in the 10 mg/kg (1/8), 20 mg/kg (5/8), and 40 mg/kg (7/8) Compound 106 treatment groups. The study was terminated on day 59. Asterisks (*) indicate P<0.05 vs. control group.
# [6] = mutant BRAF gene (20 cell lines)
# [7] = total cell lines (31 cell lines)
# [8] = wild-type BRAF gene (11 cell lines)
smiles,measurement,setting,value
CCNc1cc(O)c2c(c1)/C=C/C[C@H](O)[C@H](O)C(=O)/C=C\[C@@H](C)[C@H](C)OC2=O [Compound 106],% of Less Sensitive cell lines,[1]; [6],(25%)
same,Less sensitive cell lines (number/total),[1]; [6],5/20
same,Sensitive cell lines (number/total),[1]; [6],15/20
same,% of Less Sensitive cell lines,[1]; [7],(42%)
same,Less sensitive cell lines (number/total),[1]; [7],13/31
same,% of Less Sensitive cell lines,[1]; [8],(73%)
same,Less sensitive cell lines (number/total),[1]; [8],8/11
same,Sensitive cell lines (number/total),[1]; [8],3/11
same,% of Cell lines with IC50 < 100 nmol/L,"[1]; PTEN gene Mutant (8 cell lines), Total",(50%)
same,% of Cell lines with IC50 < 100 nmol/L,"[1]; PTEN gene Mutant, BRAF Mutant",(50%)
same,% of Cell lines with IC50 < 100 nmol/L,"[1]; PTEN gene Mutant, BRAF Wild Type",(0%)
same,% of Cell lines with IC50 < 100 nmol/L,"[1]; PTEN gene Wild Type (23 cell lines), Total",(65%)
same,% of Cell lines with IC50 < 100 nmol/L,"[1]; PTEN gene Wild Type, BRAF Mutant",(86%)
same,% of Cell lines with IC50 < 100 nmol/L,"[1]; PTEN gene Wild Type, BRAF Wild Type",(33%)
same,% of Cell lines with IC50 < 100 nmol/L,"[1]; p-AKT expression High (G2-G3), BRAF Mutant",(67%)
same,% of Cell lines with IC50 < 100 nmol/L,"[1]; p-AKT expression High (G2-G3), BRAF Wild Type",(0%)
same,% of Cell lines with IC50 < 100 nmol/L,"[1]; p-AKT expression High (G2-G3), Total",(57%)
same,% of Cell lines with IC50 < 100 nmol/L,"[1]; p-AKT expression Low (G0-G1), BRAF Mutant",(79%)
same,% of Cell lines with IC50 < 100 nmol/L,"[1]; p-AKT expression Low (G0-G1), BRAF Wild Type",(30%)
same,% of Cell lines with IC50 < 100 nmol/L,"[1]; p-AKT expression Low (G0-G1), Total",(58%)
same,Number of sensitive cell lines,[1]; of the 8 cell lines with mutant PTEN or loss of PTEN,3 cell lines
same,Number of sensitive cell lines,[1]; of the 23 cell lines with wild-type PTEN,12 cell lines
same,Plasma IL-8 levels,[2],almost completely blocked
same,Plasma IL-8 levels,[3],did not change
same,Plasma IL-8 levels,[4],almost completely blocked
same,Tumor-free animals at the end of the study on day 59,[5]; 10 mg/kg i.v. Q4D×3,1/8 and one
same,Tumor-free animals at the end of the study on day 59,[5]; 20 mg/kg i.v. Q4D×3,5/8 and five
same,Tumor-free animals at the end of the study on day 59,[5]; 40 mg/kg i.v. Q4D×3,7/8 and seven
same,Anticancer activity (tumor volume vs. control group),"[5]; 10, 20, and 40 mg/kg i.v. Q4D×3",statistically significant anticancer activity
